The NIST ThermoML archive (doi:10.1016/j.fluid.2005.09.019)
± gives the expanded uncertainty stated by the source.

Experiments:
[1] = Crystal; visual observation
[2] = wn = mass fraction of the nth substance listed; conditions: Fluid (supercritical or subcritical phases), Other PVT measurement

O=C(OCCC(F)(F)C(F)(F)C(F)(F)C(F)(F)C(F)(F)C(F)(F)F)c1cccc(-c2cccc(C(=O)OCCC(F)(F)C(F)(F)C(F)(F)C(F)(F)C(F)(F)C(F)(F)F)c2)c1
Conditions | Normal melting temperature [°C]
[1] | 72.00 ± 1

O=C(OCCC(F)(F)C(F)(F)C(F)(F)C(F)(F)C(F)(F)C(F)(F)F)c1cccc(-c2cccc(C(=O)OCCC(F)(F)C(F)(F)C(F)(F)C(F)(F)C(F)(F)C(F)(F)F)c2)c1 + O=C=O
[2]
Conditions | mass density [kg/m3]
294.55 K, 5980 kPa, w1 = 0.135 | 744 ± 22
295.05 K, 6070 kPa, w1 = 0.116 | 768 ± 23
295.15 K, 6170 kPa, w1 = 0.016 | 745 ± 22
295.55 K, 6240 kPa, w1 = 0.279 | 976 ± 29
295.95 K, 6280 kPa, w1 = 0.405 | 1054 ± 32
296.45 K, 6310 kPa, w1 = 0.334 | 950 ± 29
296.55 K, 6380 kPa, w1 = 0.206 | 904 ± 27
298.35 K, 6620 kPa, w1 = 0.206 | 900 ± 27
298.75 K, 6590 kPa, w1 = 0.116 | 782 ± 23
299.15 K, 6730 kPa, w1 = 0.405 | 1049 ± 31
299.75 K, 6610 kPa, w1 = 0.273 | 933 ± 28
299.75 K, 6900 kPa, w1 = 0.135 | 737 ± 22
299.95 K, 6860 kPa, w1 = 0.279 | 962 ± 29
300.55 K, 6930 kPa, w1 = 0.334 | 967 ± 29
301.15 K, 6900 kPa, w1 = 0.273 | 932 ± 28
301.95 K, 7070 kPa, w1 = 0.279 | 954 ± 29
302.75 K, 7520 kPa, w1 = 0.016 | 689 ± 21
303.15 K, 7240 kPa, w1 = 0.334 | 957 ± 29
303.35 K, 7310 kPa, w1 = 0.116 | 763 ± 23
303.35 K, 7340 kPa, w1 = 0.135 | 723 ± 22
303.35 K, 7550 kPa, w1 = 0.206 | 880 ± 26
303.45 K, 7240 kPa, w1 = 0.273 | 887 ± 27
304.75 K, 8270 kPa, w1 = 0.279 | 952 ± 29
305.35 K, 7520 kPa, w1 = 0.273 | 827 ± 25
305.85 K, 7660 kPa, w1 = 0.273 | 782 ± 24
305.95 K, 7620 kPa, w1 = 0.016 | 654 ± 20
312.75 K, 10240 kPa, w1 = 0.116 | 752 ± 23
318.45 K, 12270 kPa, w1 = 0.135 | 711 ± 22
320.65 K, 13200 kPa, w1 = 0.279 | 925 ± 28
321.05 K, 12890 kPa, w1 = 0.334 | 931 ± 28
321.05 K, 13270 kPa, w1 = 0.206 | 856 ± 26
322.65 K, 11510 kPa, w1 = 0.016 | 622 ± 19
327.85 K, 14660 kPa, w1 = 0.405 | 1001 ± 30
330.05 K, 15000 kPa, w1 = 0.405 | 999 ± 30
332.45 K, 15960 kPa, w1 = 0.135 | 688 ± 22
338.55 K, 17380 kPa, w1 = 0.116 | 719 ± 26
342.75 K, 18790 kPa, w1 = 0.206 | 816 ± 24
344.35 K, 18760 kPa, w1 = 0.334 | 898 ± 27
345.35 K, 18820 kPa, w1 = 0.405 | 969 ± 29
346.15 K, 19720 kPa, w1 = 0.279 | 879 ± 26
347.75 K, 16790 kPa, w1 = 0.016 | 585 ± 18
348.55 K, 19620 kPa, w1 = 0.135 | 665 ± 26
360.65 K, 22690 kPa, w1 = 0.405 | 949 ± 28
362.85 K, 23000 kPa, w1 = 0.206 | 777 ± 23
363.55 K, 22380 kPa, w1 = 0.116 | 673 ± 22
363.65 K, 23000 kPa, w1 = 0.334 | 862 ± 26
363.75 K, 19380 kPa, w1 = 0.016 | 554 ± 24
368.05 K, 24130 kPa, w1 = 0.279 | 835 ± 25
369.65 K, 24030 kPa, w1 = 0.135 | 639 ± 21

O=C(OCCC(F)(F)C(F)(F)C(F)(F)C(F)(F)C(F)(F)C(F)(F)F)c1ccccc1-c1ccccc1C(=O)OCCC(F)(F)C(F)(F)C(F)(F)C(F)(F)C(F)(F)C(F)(F)F + O=C=O
[2]
Conditions | mass density [kg/m3]
294.65 K, 5000 kPa, w1 = 0.652 | 892 ± 27
294.65 K, 5620 kPa, w1 = 0.36 | 681 ± 24
294.85 K, 5930 kPa, w1 = 0.063 | 606 ± 19
295.15 K, 6040 kPa, w1 = 0.13 | 668 ± 20
295.55 K, 6170 kPa, w1 = 0.021 | 663 ± 20
297.35 K, 6380 kPa, w1 = 0.13 | 688 ± 21
297.45 K, 6110 kPa, w1 = 0.36 | 690 ± 23
297.75 K, 5170 kPa, w1 = 0.652 | 896 ± 27
298.65 K, 5930 kPa, w1 = 0.515 | 968 ± 29
298.75 K, 6310 kPa, w1 = 0.288 | 798 ± 26
298.85 K, 6590 kPa, w1 = 0.063 | 640 ± 20
299.15 K, 6690 kPa, w1 = 0.021 | 643 ± 19
303.05 K, 7110 kPa, w1 = 0.13 | 662 ± 20
303.35 K, 7210 kPa, w1 = 0.063 | 617 ± 19
303.35 K, 7380 kPa, w1 = 0.021 | 601 ± 18
304.65 K, 7210 kPa, w1 = 0.288 | 781 ± 23
307.95 K, 7210 kPa, w1 = 0.515 | 949 ± 28
309.35 K, 8200 kPa, w1 = 0.021 | 558 ± 17
309.75 K, 7970 kPa, w1 = 0.36 | 739 ± 22
309.95 K, 8030 kPa, w1 = 0.063 | 579 ± 17
309.95 K, 8070 kPa, w1 = 0.288 | 771 ± 22
311.95 K, 8580 kPa, w1 = 0.13 | 630 ± 19
314.35 K, 7140 kPa, w1 = 0.652 | 966 ± 29
317.85 K, 8860 kPa, w1 = 0.515 | 929 ± 28
318.85 K, 9510 kPa, w1 = 0.288 | 750 ± 23
320.05 K, 10210 kPa, w1 = 0.36 | 724 ± 22
321.05 K, 10870 kPa, w1 = 0.202 | 594 ± 18
323.85 K, 11580 kPa, w1 = 0.13 | 613 ± 18
327.05 K, 11550 kPa, w1 = 0.021 | 518 ± 16
330.25 K, 13000 kPa, w1 = 0.063 | 561 ± 17
331.85 K, 12530 kPa, w1 = 0.36 | 712 ± 21
332.75 K, 12890 kPa, w1 = 0.288 | 728 ± 22
333.95 K, 9800 kPa, w1 = 0.652 | 940 ± 28
334.55 K, 12170 kPa, w1 = 0.515 | 899 ± 27
336.45 K, 14580 kPa, w1 = 0.202 | 578 ± 17
341.45 K, 15270 kPa, w1 = 0.36 | 701 ± 21
346.35 K, 16510 kPa, w1 = 0.13 | 581 ± 17
349.25 K, 15310 kPa, w1 = 0.021 | 490 ± 15
349.95 K, 17000 kPa, w1 = 0.063 | 536 ± 16
350.65 K, 15520 kPa, w1 = 0.515 | 870 ± 26
352.75 K, 17100 kPa, w1 = 0.288 | 697 ± 21
353.75 K, 12800 kPa, w1 = 0.652 | 918 ± 28
354.55 K, 18170 kPa, w1 = 0.202 | 565 ± 17
354.95 K, 17650 kPa, w1 = 0.36 | 681 ± 20
367.35 K, 20380 kPa, w1 = 0.13 | 553 ± 17
368.25 K, 17510 kPa, w1 = 0.021 | 458 ± 14
368.45 K, 18830 kPa, w1 = 0.515 | 840 ± 25
369.05 K, 20170 kPa, w1 = 0.288 | 675 ± 27
369.25 K, 19820 kPa, w1 = 0.36 | 659 ± 20
370.45 K, 15210 kPa, w1 = 0.652 | 900 ± 27
371.85 K, 20310 kPa, w1 = 0.063 | 503 ± 15
371.85 K, 21240 kPa, w1 = 0.202 | 542 ± 16
